Assay results as given in publication PMC10787067, “EBF2 Links KMT2D‐Mediated H3K4me1 to Suppress Pancreatic Cancer Progression via Upregulating KLLN” (Advanced Science, 2023).
Substitutions are numbered along the chain they refer to. Numbers in names are those of the source. Blank lines part the entries; values can stand above or below the molecule they belong to.

Legend:
[1] = molecular target: recombinant His-tagged EBF2 fusion protein (human) (UniProt Q9HAK2); test: MST; NT-647-NHS-labelled EBF2 at 100 nM in PBS with 0.05% Tween-20, pH 7.4; peptides 10 nM to 500 uM; Monolith NT.115
EBF2 = test: Peptide pull-down with SW1990 and PANC-1 protein extracts; format: binding, Human; conditions: biotin-labeled peptides, protein extracts from SW1990 and PANC-1 cells; in vitro; Figure 1B
Experimental: Unmodified histone 3 (H3), H3K4me1 peptides were incubated with nuclear extract of SW1990 cells, separated by SDS‐PAGE gel, and subjected to mass spectrometry. Factors specifically associating with H3K4me1 were screened by peptide pulldown coupled with mass spectrometry analysis. Mass spectrometry‐based proteomic analysis yielded a plethora of putative H3K4me1‐associated proteins, including many known histone or DNA modifiers, readers, and chromatin remodelers (Table S1, Supporting Information). Given that KMT2D executes its antitumor function via catalyzing the formation of H3K4me1 in pancreatic cancer, we explored the genes associated with H3K4me1.
The product was separated by sodium dodecyl sulfate‐polyacrylamide gel electrophoresis (SDS‐PAGE) with silver staining. Protein bands of interest were excised and subjected to electrospray‐ion trap tandem mass spectrometry (LCQ‐Deca, Finnigan).

His‐EBF2 = molecular target: T1, His‐EBF2 (Homo sapiens, UniProt Q9HAK2); test: Peptide pull-down with purified His-EBF2 fusion protein; format: binding; conditions: purified His-EBF2 expressed in E. coli; Figure 1C
T1 construct: His‐EBF2 plasmid was constructed by inserting the CDS of EBF2 into PET‐28a vector; His; made in house; host or cells: E. coli BL21 (DE3)
T1 sequence (Q9HAK2 1-575): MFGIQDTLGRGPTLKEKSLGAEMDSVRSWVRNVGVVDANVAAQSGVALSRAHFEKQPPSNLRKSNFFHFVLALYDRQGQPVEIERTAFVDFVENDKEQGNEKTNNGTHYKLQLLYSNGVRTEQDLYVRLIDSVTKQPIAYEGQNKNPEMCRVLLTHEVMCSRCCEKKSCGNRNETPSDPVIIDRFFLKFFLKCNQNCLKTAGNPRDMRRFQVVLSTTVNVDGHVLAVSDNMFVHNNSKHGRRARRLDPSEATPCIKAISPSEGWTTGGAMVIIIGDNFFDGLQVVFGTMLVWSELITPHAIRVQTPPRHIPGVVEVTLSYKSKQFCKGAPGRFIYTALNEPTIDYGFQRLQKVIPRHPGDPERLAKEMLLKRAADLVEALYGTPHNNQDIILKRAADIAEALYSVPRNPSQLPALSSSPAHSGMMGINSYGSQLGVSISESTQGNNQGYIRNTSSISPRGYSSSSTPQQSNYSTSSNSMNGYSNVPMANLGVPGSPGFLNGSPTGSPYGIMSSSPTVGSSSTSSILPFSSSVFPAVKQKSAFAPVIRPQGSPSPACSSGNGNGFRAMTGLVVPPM
Experimental: The CDS region of EBF2 gene was inserted into pET‐28a plasmid to express recombinant His‐tagged EBF2 fusion protein (His‐EBF2) in E. coli (Figure 1C).
His‐EBF2 plasmid was constructed by inserting the CDS of EBF2 into PET‐28a vector, transformed into E. coli BL21 (DE3), and cultured with isopropyl‐β‐D‐thiogalactoside (IPTG; Beyotime) at 16 °C for 12 h, until the optical density (OD600) reached 0.5–0.6. BL21 cells were collected and sonicated in cold PBS buffer, and His‐fusion proteins were purified with High Affinity Nickel beads (Genscript, Nanjing, China). The purity of His‐fusion proteins was evaluated by SDS‐PAGE.

His‐EBF2 fusion protein = test: Isothermal titration calorimetry (ITC); format: binding; conditions: Figure 1E
Experimental: His‐EBF2 plasmid was constructed by inserting the CDS of EBF2 into PET‐28a vector, transformed into E. coli BL21 (DE3), and cultured with isopropyl‐β‐D‐thiogalactoside (IPTG; Beyotime) at 16 °C for 12 h, […]. BL21 cells were collected and sonicated in cold PBS buffer, and His‐fusion proteins were purified with High Affinity Nickel beads (Genscript, Nanjing, China). The purity of His‐fusion proteins was evaluated by SDS‐PAGE.
A MicroCal ITC‐200 system (Malvern Instruments Ltd., UK) was used for ITC assay. Briefly, the synthesized peptides (Genscript) and proteins were all subjected to extensive dialysis against PBS. Peptides at a concentration of 1 mM were loaded into the ITC syringe, and proteins at a concentration of 100 µM into the ITC cell. Then, every 2 µL of peptide was automatically injected into the cell at 25 °C. The results of binding isotherms were analyzed using the Origin 7.0 software package (Origin Lab).

H3K4me1 = test: Co-IP of Flag-tagged EBF2-WT or EBF2-H239A with H3K4me1 in SW1990 cells; format: binding, Human; conditions: Co-IP on SW1990 cells; Figure S1B
Experimental: Co‐immunoprecipitation assay was performed as described previously.^[ [61] ^] Briefly, SW1990 cells were transfected with indicated constructs or treated with GSK‐LSD1, washed with cold phosphate buffered saline (PBS), and lysed with cold cell lysis buffer. Then, the lysates were incubated with appropriate specific antibodies or normal rabbit IgG at 4 °C overnight in constant rotation, followed by the addition of protein A/G Sepharose beads and incubation for 2 h at 4 °C. The beads were then washed five times by the lysis buffer. Bead‐bound proteins were resolved by SDS‐PAGE and detected by immunoblotting using indicated antibodies.

- Kd [1]: 7.37 µM
Molecule: H3K4me1 peptide (C-terminal biotin-tagged 19 amino acid N-terminal peptide of histone H3, mono-methylated on Lys 4) (from UniProt P68431 2-20)

- pull-down of purified His-EBF2 by peptide (His‐EBF2): pulled down by H3K4me1 peptide
Molecule: CNCCCC[C@H](NC(=O)[C@@H](NC(=O)[C@H](CCCNC(=N)N)NC(=O)[C@H](C)N)[C@@H](C)O)C(=O)N[C@@H](CCC(N)=O)C(=O)N[C@H](C(=O)N[C@@H](C)C(=O)N[C@@H](CCCNC(=N)N)C(=O)N[C@@H](CCCCN)C(=O)N[C@@H](CO)C(=O)N[C@H](C(=O)NCC(=O)NCC(=O)N[C@@H](CCCCN)C(=O)N[C@@H](C)C(=O)N1CCC[C@H]1C(=O)N[C@@H](CCCNC(=N)N)C(=O)N[C@@H](CCCCN)C(=O)N[C@@H](CCC(N)=O)C(=O)O)[C@@H](C)O)[C@@H](C)O [H3K4me1]
- preferential binding of EBF2 to peptide (EBF2): preferential binding of EBF2 to H3K4me1 over H3K4me3
- affinity of His-EBF2 to peptide, in words (His‐EBF2 fusion protein): strong affinity

B1: EBF2‐H239A: Flag-tagged EBF2-H239A; H239 is the site for H3K4me1 binding to EBF2 protein (protein)
chain: T1 sequence (Q9HAK2 1-575) with H239A
- ability to bind H3K4me1 compared with EBF2-WT (H3K4me1): significantly weaker than that of EBF2‐WT
